Here are results for one molecule from patent US20200179392A1, “Idelalisib for Treating Proliferative Vitreoretinopathy and Abnormal Intraocular Neovascularization” (priority 2016, published 2020).

The test deals with RPEM cells. The test is described as follows: Collagen contraction assay, RPEM cells with vitreous. Format: cell-based, human. The conditions noted are these: idelalisib 5 μM, 48 hours. Here is the method: 3D. The RPEM cells were re-suspended in 1.5 mg/ml of neutralized collagen I at a density of 1×10^6 cells/ml and seeded into wells of a 24-well plate. The solidified gels were overlaid with either DMEM/F12 alone (-), or RV supplemented with idelalisib (5 μM) or its vehicle as indicated. After 48 hours the gel diameter was measured and the gel area were calculated. A photograph of a representative experiment is shown at the bottom of the bar graphs. The mean±standard deviation (SD) of three independent experiments is shown; * denotes […]<0.05 using an unpaired t-test. RPEM cells were re-suspended in 1.5 mg/ml of neutralized collagen […], Fremont, Calif.) (pH 7.2) at ice at a density 1×10^6 cells/ml^24, 54. The mixture was transferred into wells of 24-well plates that had been preincubated overnight with 5 mg/ml bovine serum albumin/PBS. After the collagen had polymerized at 37° C. for 90 minutes, 0.5 ml DMEM/F12 or RV (1:2 dilution in DMEM/F12) with or without idelalisib (5 μM) was added. On day 3, the gel diameter was measured and the gel area was calculated using a formula 3.14×r^2, where r is the radius of the gel. At least three independent experiments were performed^24, 55.

As for `CC[C@H](Nc1ncnc2[nH]cnc12)c1nc2cccc(F)c2c(=O)n1-c1ccccc1` [idelalisib], the “effect on vitreous-induced collagen contraction of RPEM cells” value was “completely blocked”.
